Results as given in patent US20240350458A1, “14-3-3 PROTEIN MODULATORS AS ANTITUMOR AGENTS” (priority 2021, published 2024).
pIC50: −log10 of the molar value. Read-outs that look alike come from different tables or passages of the source.

Experiments:
U2932 = test: MTT proliferation assay, B-cell lymphoma cell line; type: cell-based; settings: Homo sapiens; U2932, 72 h of drug incubation
Procedure: (§1) All the above compounds were tested in vitro for their anticancer activity against a panel of eight B-cell lymphoma cell lines by MTT proliferation assay. The tested cell lines belonging to mantle cell lymphoma (MCL: REC1, Z138), activated B-cell diffuse large B-cell lymphoma (ABC-DLBCL: R11, HBL1, U2932, TMD8), germinal center B-cell diffuse large B-cell lymphoma (GCB-DLBCL: SU-DHL-10, FARAGE) subtypes. In overall, MCL cell lines present Cyclin D1 overexpression, while ABC- and GCB-DLBCL's proliferation is BCR and BCL6/HDACs driven, respectively. At the RNA level, all tested lymphoma cell lines were characterized by an overexpression of 14-3-3 zeta as reported for B-cell lymphomas resistant to chemotherapeutic regimen.

HBL1 = test: MTT proliferation assay, B-cell lymphoma cell line; type: cell-based; settings: HBL1, 72 h of drug incubation
Procedure: as §1

RI1 = test: MTT proliferation assay, B-cell lymphoma cell line; type: cell-based; settings: Ri-1; RI1, 72 h of drug incubation
Procedure: as §1

REC1 = test: MTT proliferation assay, B-cell lymphoma cell line; type: cell-based; settings: Homo sapiens; REC1, 72 h of drug incubation
Procedure: as §1

TMD8 = test: MTT proliferation assay, B-cell lymphoma cell line; type: cell-based; settings: Homo sapiens; TMD8, 72 h of drug incubation
Procedure: as §1

Z138 = test: MTT proliferation assay, B-cell lymphoma cell line; type: cell-based; settings: Homo sapiens, Z-138; Z138, 72 h of drug incubation
Procedure: as §1

FARAGE = test: MTT proliferation assay, B-cell lymphoma cell line; type: cell-based; settings: 72 h of drug incubation
Procedure: as §1

SUDHL10 = test: MTT proliferation assay, B-cell lymphoma cell line; type: cell-based; settings: Homo sapiens, SU-DHL10; SUDHL10, 72 h of drug incubation
Procedure: as §1

[1] = test system: four human ATC cell lines; test: Cellular screening in four human ATC cell lines; type: cell-based
SW1736 = test: MTT assay, ATC cell line, fixed concentrations; type: cell-based; settings: Homo sapiens, SW-1736, 48 h, read-out: % of proliferating cells; for viability at 0.02 µM: SW1736, 20 nM; for viability at 0.1 µM: SW1736, 100 nM; for viability at 20 µM: SW1736, 20000 nM
Procedure: (§2) The compounds FC91, SB14, SB17, SB18, SB19, SB20, SB21 and FC85 were employed in a cellular screening at fixed concentration ranging from 20 nM to 20 μM.
(§3) Table 2: Four human thyroid cancer cell lines were incubated with FC91, SB14, SB17, SB18, SB19, SB20A, SB20b, SB21 and FC85 for 48 h at fixed concentration of 20,100 and 20000 nM and then assayed with MTT. Data are reported as % of proliferating cells.

8505c = test: MTT assay, ATC cell line, fixed concentrations; type: cell-based; settings: Homo sapiens, 48 h, read-out: % of proliferating cells; for viability at 0.02 µM: 20 nM; for viability at 0.1 µM: 100 nM; for viability at 20 µM: 20000 nM
Procedure: as §2, §3

Nthory = test: MTT assay, ATC cell line, fixed concentrations; type: cell-based; settings: Homo sapiens, 48 h, read-out: % of proliferating cells; for viability at 0.02 µM: 20 nM; for viability at 0.1 µM: 100 nM; for viability at 20 µM: 20000 nM
Procedure: as §2, §3

FRO = test: MTT assay, ATC cell line, fixed concentrations; type: cell-based; settings: Homo sapiens, 48 h, read-out: % of proliferating cells; for viability at 0.02 µM: 20 nM; for viability at 0.1 µM: 100 nM; for viability at 20 µM: 20000 nM
Procedure: as §2, §3

[2] = test system: eight B-cell lymphoma cell lines; test: MTT proliferation assay, panel of eight B-cell lymphoma cell lines; type: cell-based; settings: for pIC50: B-cell, read-out: IC50 in all eight lymphoma cell lines; for activity in lymphoma cell lines: eight lymphoma cell lines
Procedure: as §1

glioblastoma cell = settings: combined with temozolomide; cited from earlier work
[3] = human ATC cell lines, read-out: IC50 values in ATC cell lines
[4] = Homo sapiens, in one (i.e. SB17) to four (i.e. SB20b) cell lines of anaplastic thyroid cancer, read-out: IC50 value in ATC cell lines

Compound	pIC50 (U2932)	pIC50 (HBL1)	pIC50 (RI1)	pIC50 (REC1)	pIC50 (TMD8)	pIC50 (Z138)	pIC50 (FARAGE)	pIC50 [1, 4]	viability at 0.02 µM (SW1736) [%]	viability at 0.1 µM (SW1736) [%]	viability at 20 µM (SW1736) [%]	viability at 0.02 µM (8505c) [%]	viability at 0.1 µM (8505c) [%]	viability at 20 µM (8505c) [%]	viability at 0.02 µM (Nthory) [%]	viability at 0.1 µM (Nthory) [%]	viability at 20 µM (Nthory) [%]	viability at 0.02 µM (FRO) [%]	viability at 0.1 µM (FRO) [%]	viability at 20 µM (FRO) [%]	further results
Cc1ccc(S(=O)(=O)Nc2ccc3c(c2)C(=Cc2nccn2C)C(=O)N3)cc1 (stereo in doubt) [FC91, N-{(3E)-3-[(1-methyl-1H-imidazol-2-yl)methylidene]-2-oxo-2,3-dihydro-1H-indol-5-yl}-4-methylbenzenesulfonamide]	7.30	7.40	7.52	7.30	7.30	7.30	7.60	–	73	52	60	79	38	48	84	55	47	63	46	55	pIC50 (SUDHL10): 7.30; pIC50 [1, 3]: 6.70 to 7.00; pIC50 [2]: > 6.00; IC50 in eight different lymphoma cell lines ([2]; eight different lymphoma cell lines): nanomolar range
Cc1ccc(S(=O)(=O)Nc2ccc3c(c2)/C(=C/c2cnc[nH]2)C(=O)N3)cc1 [FC85, N-[(3Z)-3-(1H-imidazol-5-ylmethylidene)-2-oxo-2,3-dihydro-1H-indol-5-yl]-4-methylbenzenesulfonamide]	6.30	6.22	6.30	6.00	6.22	6.30	6.30	4.70 to 7.00	90	67	56	80	99	36	78	83	38	75	98	42	inhibition of glioblastoma cell viability, combination vs single treatment (glioblastoma cell): significant increase in inhibition; pIC50 (SUDHL10): 6.22; pIC50 [2]: > 6.00
CS(=O)(=O)Nc1ccc2c(c1)/C(=C/c1cccs1)C(=O)N2 [FC96, reference compound]	< 4.70	< 4.70	4.70	4.82	< 4.70	< 4.70	< 4.70	–	–	–	–	–	–	–	–	–	–	–	–	–	pIC50 (SUDHL10): < 4.70; activity in lymphoma cell lines [2]: almost inactive
CS(=O)(=O)Nc1ccc2c(c1)/C(=C/c1cnc[nH]1)C(=O)N2 [FC100, reference compound]	< 4.70	< 4.70	5.26	4.80	< 4.70	5.10	< 4.70	–	–	–	–	–	–	–	–	–	–	–	–	–	pIC50 (SUDHL10): 4.72; activity in lymphoma cell lines [2]: almost inactive
Cc1ccc(S(=O)(=O)Nc2ccc3c(c2)C(=Cc2cccnc2N)C(=O)N3)cc1 [SB20A, N-(3-((2-aminopyridin-3-yl)methylene)-2-oxoindolin-5-yl)-4-methylbenzenesulfonamide]	–	–	–	–	–	–	–	–	82	89	–	78	99	35	99	77	63	85	–	–	–

Second part, led by results:

pIC50 (U2932)	pIC50 (HBL1)	pIC50 (RI1)	pIC50 (REC1)	pIC50 (TMD8)	pIC50 (Z138)	pIC50 (FARAGE)	pIC50 [1, 4]	Compound	viability at 0.02 µM (SW1736) [%]	viability at 0.1 µM (SW1736) [%]	viability at 20 µM (SW1736) [%]	viability at 0.02 µM (8505c) [%]	viability at 0.1 µM (8505c) [%]	viability at 20 µM (8505c) [%]	viability at 0.02 µM (Nthory) [%]	viability at 0.1 µM (Nthory) [%]	viability at 20 µM (Nthory) [%]	viability at 0.02 µM (FRO) [%]	viability at 0.1 µM (FRO) [%]	viability at 20 µM (FRO) [%]	further results
–	–	–	–	–	–	–	4.70 to 7.00	Cc1ccc(S(=O)(=O)Nc2ccc3c(c2)/C(=C/c2cnc(C)[nH]2)C(=O)N3)cc1 [SB14, (Z)-4-methyl-N-(3-((2-methyl-1H-imidazol-5-yl)methylene)-2-oxoindolin-5-yl)benzenesulfonamide]	84	102	70	97	128	65	95	77	41	92	113	57	–
–	–	–	–	–	–	–	4.70 to 7.00	Cc1ccc(S(=O)(=O)Nc2ccc3c(c2)/C(=C/c2ccn[nH]2)C(=O)N3)cc1 [SB17, (Z)—N-(3-((1H-pyrazol-5-yl)methylene)-2-oxoindolin-5-yl)-4-methylbenzenesulfonamide]	81	99	63	90	119	59	89	73	48	80	113	55	–
–	–	–	–	–	–	–	4.70 to 7.00	Cc1ccc(S(=O)(=O)Nc2ccc3c(c2)/C(=C/c2cn[nH]c2)C(=O)N3)cc1 [SB18, (E/Z)—N-(3-((1H-pyrazol-4-yl)methylene)-2-oxoindolin-5-yl)-4-methylbenzenesulfonamide]	77	64	59	80	48	42	54	58	34	77	54	56	pIC50 [1, 3]: 6.70 to 7.00
–	–	–	–	–	–	–	4.70 to 7.00	Cc1ccc(S(=O)(=O)Nc2ccc3c(c2)/C(=C/c2ncc[nH]2)C(=O)N3)cc1 [SB19, (Z)—N-(3-((1H-imidazol-2-yl)methylene)-2-oxoindolin-5-yl)-4-methylbenzenesulfonamide]	80	85	59	74	74	37	81	61	43	78	74	51	pIC50 [1, 3]: 6.70 to 7.00
–	–	–	–	–	–	–	4.70 to 7.00	Cc1ccc(S(=O)(=O)Nc2ccc3c(c2)C(=Cc2cccnc2N)C(=O)N3)cc1 [SB20, N-(3-((2-aminopyridin-3-yl)methylene)-2-oxoindolin-5-yl)-4-methylbenzenesulfonamide]	–	–	–	–	–	–	–	–	–	–	–	–	–
–	–	–	–	–	–	–	4.70 to 7.00	Cc1ccc(S(=O)(=O)Nc2ccc3c(c2)C(=C2c4ccccc4-c4ccccc42)C(=O)N3)cc1 [SB21, N-(3-(9H-fluoren-9-ylidene)-2-oxoindolin-5-yl)-4-methylbenzenesulfonamide]	108	103	64	82	134	37	91	94	15	93	114	60	–
